# Source: patent US6939859B1, “Skin preparations for external use” (CCI Corp., priority 1999, dated 2005)
# How the values were obtained:
# interleukin-1α (IL-1α) [1] = experiment: Effect of preventing UVB-induced cytokine (IL-1α production, sample present during irradiation); type: cell-based; settings: cornified cells of normal human neonate foreskin; 0.1 mM sample during UVB 30 mJ/cm^2; 6 h culture; ELISA; means ± S.E.
# Experimental: Cornified cells of normal human neonate foreskin scurfskin (freeze-preserved product, made by Kurabo K.K.) were adjusted to a cell density of 1.0×10^5 pieces/ml in a HuMedia-KG2 culture medium (made by Kurabo K.K.), sown in a unit volume of 2 ml in the component wells of a 6-hole plate, and cultured in an atmosphere of 5% CO2 at 37° C. for 24 hours. After completion of the culture, the culture medium was removed and the wells were each washed twice with 2 ml of Hanks buffer. Some of these wells to which the Hanks buffer alone was added in a unit amount of 1 ml formed a control group and the remainders of them to which the Hanks buffer containing 0.1 mM of a given sample was added in a unit amount of 1 ml formed a sample-added group. The groups each consisted of 8 samples. They were irradiated with a UVB (312 nm) emitted from an ultraviolet lamp (made by Cosmo Bio K.K.) at a dosage of 30 mJ/cm^2. The amount of the energy so emitted was measured by the use of an ultraviolet light intensity meter (made by Topcon K.K. and sold under the trademark designation of “UVR-2).
# Immediately after completion of the irradiation, the wells were each washed twice with 2 m of Hanks buffer. With a HuMedia-KG2 culture medium added in a unit volume of 1 ml to the wells, the contents of the wells were cultured in an atmosphere of 5% CO2 at 37° C. for 6 hours.
# (§1) The supernatant occurring at the end of 6 hours' culture was recovered and centrifuged at 1000 rpm for 5 minutes. The concentration of the IL-1α in the resultant supernatant was determined by the use of an ELISA kit made by ENDOGENE Corp. The significance was verified by the t-test and was applied to the groups yet to be treated.
# interleukin-1α (IL-1α) [2] = experiment: Effect of curing UVB disorder (IL-1α production, sample added after irradiation); type: cell-based; settings: cornified cells of normal human neonate foreskin; 0.1 mM sample added after UVB 30 mJ/cm^2; 6 h culture; ELISA; means ± S.E.
# Experimental: Cornified cells of normal human neonate foreskin scurfskin (freeze-preserved product, made by Kurabo K.K.) were adjusted to a cell density of 1.0×10^5 pieces/ml in a HuMedia-KG2 culture medium (made by Kurabo K.K.), sown in a unit volume of 2 ml in the component wells of a 6-hole plate, and cultured in an atmosphere of 5% CO2 at 37° C. for 24 hours. After completion of the culture, the culture medium was removed and the wells were each washed twice with 2 ml of Hanks buffer. The Hanks buffer alone was added in a unit volume of 1 ml to the wells. They were irradiated with a UVB (312nm) emitted from an ultraviolet lamp (made by Cosmo Bio K.K.) at a dosage of 30 mJ/cm”. The amount of the energy so emitted was measured by the use of an ultraviolet light intensity meter (made by Topcon K.K. and sold under the trademark designation of “UVR-2”) . . . . Some of these wells to which the Hanks buffer alone was added in a unit amount of 1 ml formed a control group and the remainders of them to which the Hanks buffer containing 0.1 mM of a given sample was added in a unit amount of 1 ml formed a sample-added group. The groups each consisted of 8 samples. The contents of the wells were cultured in an atmosphere of 5% CO2 at 37° C. for 6 hours.
# as §1
# [3] = system: diploid fibroblasts originating in the skin of a normal person (NB1RGB); experiment: Test for confirming effect of preventing ultraviolet light (UVB) disorder, NB1RGB cells; type: cell-based, human; settings: 1 mM chromanol glycoside, UVB 312 nm 60 mJ/cm^2, 72 h culture, neutral red, non-irradiated = 100%
# Experimental: (§2) The fibroblasts originating in the lungs of Chinese hamster (V79) or the diploid fibroblasts originating in the skin-of a normal person (NB1RGB) were adjusted in a culture medium till the cell density reached 5.0×10^4 pieces/ml, sown at a rate of 100 μl in each of the wells on a 96-hole plate, and cultured in an atmosphere of 5% CO2 kept at 37° C. for 24 hours. As the culture medium, an E-MEM medium containing 10% bovine fetus serum (made by Nissui K.K.) For V79 or an α-MEM medium (made by SIGMA) for NB1RGB (hereinafter each referred to as “ordinary culture medium”).
# (§3) After 24 hours' culture, the culture medium was removed and the individual wells were each washed twice with 200 μl of Hanks equilibrium salt buffer (Hanksbuffer). Some of these wells to which the Hanks buffer alone was added in a unit amount of 100 μl formed a control group and the remainders of them to which the Hanks buffer having a given chromanol glycoside dissolved till a final concentration of 1 mM was added in a unit amount of 100 μl formed a chromanol glycoside-added group. The groups each consisted of 46 samples. They were irradiated with a UVB (312 nm) emitted from an ultraviolet lamp (made by Cosmo Bio K.K.) at a dosage of 60 mJ/cm^2. The amount of the energy so emitted was measured by the use of an ultraviolet light intensity meter (made by Topcon K.K. and sold under the product code of “UVR-2”).
# (§4) Immediately after completion of the irradiation, the wells were each washed twice with 200 μl. With the ordinary culture medium added in a unit volume of 100 μl to the wells, the contents of the wells were cultured for 72 hours. After the elapse of 72 hours from thence, the neutral red reagent (0.015%) was added in a unit volume of 100 μl to the wells and the resultant contents of the wells were cultured for 3 hours. After the elapse of 3 hours from thence, the culture medium was removed and a fixing solution (aqueous solution containing 0.5% of formaldehyde and 0.1% of calcium chloride) was added in a unit volume of 200 μl to the wells. The resultant contents of the wells were fixed for one minute and the fixing solution was removed from the wells. Then, an extracting solution (aqueous solution containing 50% of ethanol and 1% of acetic acid) were added in a unit volume of 100 μl to the wells. The resultant contents of the wells were left standing for 20 minutes and assayed with a micro-plate reader for the absorbency at 490 nm and visually examined to count the number of live cells. On the basis of the results of the assay, the relative survival ratios of the samples were determined, with the number of cells in the groups of wells not irradiated with the ultraviolet light taken as 100%.
# [4] = system: fibroblasts originating in the lungs of Chinese hamster (V79); experiment: Test for confirming effect of preventing ultraviolet light (UVB) disorder, V79 cells; type: cell-based; settings: 1 mM chromanol glycoside, UVB 312 nm 60 mJ/cm^2, 72 h culture, neutral red, non-irradiated = 100%
# Experimental: as §2, §3, §4
# NB1RGB = experiment: Test for confirming effect of promoting growth of cells, NB1RGB; type: cell-based, human; settings: 100 μM chromanol glycoside, 72 h, neutral red, control = 100%
# Experimental: (§5) V79 or NB1RGB was adjusted with a culture medium till the cell density reached 5×10^4 pieces/ml. Then, it was sown in a unit volume of 100 μl in the component wells of a 96-hole plate and cultured in an atmosphere of 5% CO2 at 37° C. for 72 hours. The culture medium used herein was the ordinary culture medium. Some of the wells effecting culture in the ordinary culture medium containing 100 μM of chromanol glycoside formed a chromanol glycoside-added group and the remainders of the wells effecting culture in the ordinary culture medium formed a control group. The groups each consisted of 80 samples. After the elapse of 72 hours from thence, a neutral red reagent (0.015%) was added in a unit volume of 100 μl to the wells and the resultant contents of the wells were cultured for 3 hours. After the 3 hours' culture, the culture medium was removed and a fixing solution (aqueous solution containing 0.5% of formaldehyde and 0.1% of calcium chloride) was added in a unit volume of 200 μl to the wells. The resultant contents of the wells were left fixing for one minute and then the fixing solution was removed. Subsequently, an extraction solution (aqueous solution containing 50% of ethanol and 1% of acetic acid) was added in a unit volume of 100 μl to the wells. The resultant contents of the wells were left standing for 20 minutes and measured for absorbency at 490 nm by the use of a micro-plate reader so as to allow computation of the number of cells. On the basis of the results of the measurement, the relative breeding ratios of the samples were determined, with the number of cells in the control groups taken as 100%.
# V79 = experiment: Test for confirming effect of promoting growth of cells, V79; type: cell-based, Chinese hamster; settings: 100 μM chromanol glycoside, 72 h, neutral red, control = 100%
# Experimental: as §5
# ICR type mice = experiment: Test for acute toxicity; type: in vivo; settings: oral, 500 mg/kg as TMG in 5% gum arabic, observation for one week
# Experimental: The dermatological agent for external use of this invention was tested for acute toxicity so as to establish the safety thereof. ICR type mice4-5 weeks old were divided into groups each of three heads. The same TMG as mentioned above was suspended as a chromanol glycoside in a 5% gum arabic solution. The suspension was orally administered to the mice at a unit dosage of 500 mg/kg as reduced to TMG and the mice were kept under observation for one week. To the mice in the control group, a 5% gum arabic solution was orally administered in a unit volume of 0.3 ml. No fatality was found in any of the mice in the administration group.
# [5] = system: pigment-sedimented skin of colored guinea pigs; experiment: Improving effect relative to deposition of ultraviolet light-induced pigment; type: in vivo, guinea pig; settings: 5% TMG solution in 50% ethanol, applied twice daily for three weeks, 5.6 μl/cm^2; brightness of skin (L value)
# Experimental: Pigment-sedimented models wee produced from Al-1 type colored guinea pigs (female, 7-week old) divided into groups of 6 heads by shaving their backs and performing the irradiation of the skins of the backs with the ultraviolet light (light source: xenon lamp, dose: 2 MED×1 minute) once daily up to a total of three repetitions three to four days apart. After the models had been left standing for 10 days from thence, the specific portions of the pigment-sedimented parts were measured for the brightness of skin (L value) by the use of a calorimeter (former value). To the pigment-sedimented parts, a 5% TMG solution adjusted by using a 50% ethanol solution as a solvent was applied twice daily continuously for three weeks (amount applied:5.6 μl/cm^2). The guinea pigs which had undergone this application formed a TMG-applied group. The guinea pigs which had undergone application of a 50% ethanol solution in the place of the 5% TMG solution formed a control group. After three weeks from the start of the application, the skins of their backs were measured for the brightness with a calorimeter (latter value) to find the ΔL value(former value−lattervalue).
Compound,"Amount of IL-1α produced, Effect of prevention (interleukin-1α (IL-1α) [1]) [µg/mL]","Amount of IL-1α produced, Effect of curing (interleukin-1α (IL-1α) [2]) [µg/mL]",Survival ratio (%) [3] [%],Survival ratio (%) [4] [%],Breeding ratio (%) (NB1RGB),Breeding ratio (%) (V79),Fatality (acute toxicity) (ICR type mice),ΔL value [5]
O=C1O[C@H]([C@@H](O)CO)C(O)=C1O [Ascorbic acid],16.5 ± 2.8,31.7 ± 5.0,–,–,–,–,–,–
N[C@@H](CCC(=O)N[C@@H](CS)C(=O)NCC(=O)O)C(=O)O [Glutathione],7.2 ± 3.4,36.5 ± 1.6,–,–,–,–,–,–
"Cc1c(C)c2c(c(C)c1O)CCC(C)(C[C@]1(CO)O[C@H](CO)[C@@H](O)[C@@H]1O)O2 (stereo partly drawn) [TMFR, 2-(β-D-Fructofuranosyl)methyl-2,5,7,8-tetramethyl chroman-6-ol]",–,–,81 ± 12,89 ± 9,115,126,–,–
"Cc1c(C)c2c(c(C)c1O)CCC(C)(C[C@H]1O[C@H](CO)[C@@H](O)[C@H](O)[C@H]1O)O2 (stereo partly drawn) [TMG, 2-(α-D-Glucopyranosyl)methyl-2,5,7,8-tetramethyl chroman-6-ol]",14.5 ± 3.5,18.5 ± 4.2,78 ± 16,75 ± 8,118,112,No fatality,2.00
"Cc1c(C)c2c(c(C)c1O)CCC(C)(C[C@@H]1O[C@H](CO)[C@H](O)[C@H](O)[C@H]1O)O2 (stereo partly drawn) [TMGA, 2-(β-D-Galactopyranosyl)methyl-2,5,7,8-tetramethyl chroman-6-ol]",–,–,83 ± 14,83 ± 7,121,115,–,–
"Cc1c(C)c2c(c(C)c1O)CCC(C)(C[C@H]1O[C@H](CO)[C@@H](O)[C@H](O)[C@@H]1O)O2 (stereo partly drawn) [TMMA, 2-(α-D-Mannopyranosyl)methyl-2,5,7,8-tetramethyl chroman-6-ol]",–,–,79 ± 8.7,96 ± 9,121,124,–,–
